Test results published in paper PMC7878837, “Generation of Human-Induced Pluripotent Stem Cell-Derived Functional Enterocyte-Like Cells for Pharmacokinetic Studies” (Stem Cell Reports, 2021).
Where two headings read alike, the source gives them in different places.

Experiments:
[1] = tested on: RPChiPS771-derived enterocyte-like cells; assay: Real-time PCR of marker genes in hiPSC-derived enterocyte-like cells with or without VD3; format: cell-based, human
From the text: We then used M3-2 for maturation and evaluated the time-dependent expression of marker genes (Figure 4D). […] The expression levels of UDP glucuronosyltransferase 1-1 (UGT1A1) and various isoforms of P450 metabolizing enzymes (CYP2B6, CYP3A4, and CYP3A7) increased in the presence of VD3 compared with the controls without VD3. The expression levels of uptake transporter, SLC15A1, and efflux transporters, ABCB1 and ABCG2, were not affected by VD3.
Cells were fixed in 4% paraformaldehyde (Nacalai Tesque) in PBS, permeabilized with 0.1% Triton X-100 (Nacalai Tesque). The following antibodies were used: anti-CDX2 (1:100, BioGenex, San Ramon, CA, MU392A-UC), anti-VILLIN (1:100, BD Transduction Laboratories, San Diego, 610359), Alexa 568-conjugated, and Alexa 488-conjugated antibodies (1:1000, ThermoFisher).
RNA was extracted from iPS cells using the RNeasy micro-kit or QIAzol (Qiagen, Hilden, Germany) and then treated with DNase (Qiagen). For reverse transcription reactions, 2.5 µg RNA was reverse-transcribed using PrimeScript™ RT Master Mix (Takara Bio). For real-time PCR analysis, the mRNA expression was quantified with either TaqMan Primers and Probe or using SYBR Green on a StepOne Plus (Applied Biosystems, Foster City, CA, USA). β-ACTIN and GAPDH were used as internal controls. Target mRNA levels were expressed as fold-change against human adult small intestine (ASI; ASI=1). Primer details are listed in Supplemental Table S2.
Membrane integrities of human iPSCs derived intestine cells and Caco-2 cells cultured on CVM were measured after the medium change, using a Millicell ERS-2 (Epithelial Volt-Ohm Meter, Millipore).
Transcellular transport assays and measurement of CYP3A metabolite
In Figure 2 and Figure S1, for assessing the transporter activity of P-gp, time-dependent directional (B-to-

[2] = Permeability test (Papp) across hiPSC-derived enterocyte-like cell monolayer; format: in vitro ADME; settings: human, M3-2 medium, 37°C 2 h, n = 4
Experimental: The unlabeled compounds were analyzed by LC-MS/MS. […]
Permeability measurements
5 was determined as follows: the culture medium for hiPS-derived enterocyte-like cells was replaced with […]
started by replacing the FBS-containing HBSS buffer with substrate +/- inhibitor and incubated at 37°C for 2 h. The unlabeled compounds were analyzed by LC-MS/MS. The LC-MS/MS system consisted of a Waters ACQUITY UPLC (Waters Corporation, Milford, MA, USA) and a Waters Quattro Ultima mass spectrometer (Waters Corporation). The multiple reaction monitoring modes were used to monitor ions.
The detailed conditions for the analyses of the compounds are shown in Supplemental Table S1. The apparent membrane permeability coefficient (Papp) was calculated as follows. Papp ൌ ௗொௗ௧ ൈ ଵ஺஼బ Where dQ/dt is the amount of the compound permeated per unit of time, A is the surface area of insert membrane (0.33 cm2), and C0 is the initial compound concentration in the donor chamber. Differentiated cells showing TEER >30 Ω・cm2 were used. […]
100ൈቀ1െexp൫െα ൈP௔௣௣ ൯ቁ. Where α is the scaling factor. The fitting curve was calculated by nonlinear regression using Phoenix WinNonlin (Ver. 8.1, Certara, L.P.).

[3] = fraction of oral dose absorbed in humans; ref Amidon et al., 1988; Sjöberg et al., 2013; Skolnik et al., 2010; Sugano et al., 2002; Takenaka et al., 2016; Tavelin et al., 2003; Xiao et al., 2019; cited from earlier work
[4] = biological target: T1, P-gp (Homo sapiens, UniProt P08183); settings: digoxin 1.27 nM, absence of inhibitor
T1 sequence (P08183 whole entry): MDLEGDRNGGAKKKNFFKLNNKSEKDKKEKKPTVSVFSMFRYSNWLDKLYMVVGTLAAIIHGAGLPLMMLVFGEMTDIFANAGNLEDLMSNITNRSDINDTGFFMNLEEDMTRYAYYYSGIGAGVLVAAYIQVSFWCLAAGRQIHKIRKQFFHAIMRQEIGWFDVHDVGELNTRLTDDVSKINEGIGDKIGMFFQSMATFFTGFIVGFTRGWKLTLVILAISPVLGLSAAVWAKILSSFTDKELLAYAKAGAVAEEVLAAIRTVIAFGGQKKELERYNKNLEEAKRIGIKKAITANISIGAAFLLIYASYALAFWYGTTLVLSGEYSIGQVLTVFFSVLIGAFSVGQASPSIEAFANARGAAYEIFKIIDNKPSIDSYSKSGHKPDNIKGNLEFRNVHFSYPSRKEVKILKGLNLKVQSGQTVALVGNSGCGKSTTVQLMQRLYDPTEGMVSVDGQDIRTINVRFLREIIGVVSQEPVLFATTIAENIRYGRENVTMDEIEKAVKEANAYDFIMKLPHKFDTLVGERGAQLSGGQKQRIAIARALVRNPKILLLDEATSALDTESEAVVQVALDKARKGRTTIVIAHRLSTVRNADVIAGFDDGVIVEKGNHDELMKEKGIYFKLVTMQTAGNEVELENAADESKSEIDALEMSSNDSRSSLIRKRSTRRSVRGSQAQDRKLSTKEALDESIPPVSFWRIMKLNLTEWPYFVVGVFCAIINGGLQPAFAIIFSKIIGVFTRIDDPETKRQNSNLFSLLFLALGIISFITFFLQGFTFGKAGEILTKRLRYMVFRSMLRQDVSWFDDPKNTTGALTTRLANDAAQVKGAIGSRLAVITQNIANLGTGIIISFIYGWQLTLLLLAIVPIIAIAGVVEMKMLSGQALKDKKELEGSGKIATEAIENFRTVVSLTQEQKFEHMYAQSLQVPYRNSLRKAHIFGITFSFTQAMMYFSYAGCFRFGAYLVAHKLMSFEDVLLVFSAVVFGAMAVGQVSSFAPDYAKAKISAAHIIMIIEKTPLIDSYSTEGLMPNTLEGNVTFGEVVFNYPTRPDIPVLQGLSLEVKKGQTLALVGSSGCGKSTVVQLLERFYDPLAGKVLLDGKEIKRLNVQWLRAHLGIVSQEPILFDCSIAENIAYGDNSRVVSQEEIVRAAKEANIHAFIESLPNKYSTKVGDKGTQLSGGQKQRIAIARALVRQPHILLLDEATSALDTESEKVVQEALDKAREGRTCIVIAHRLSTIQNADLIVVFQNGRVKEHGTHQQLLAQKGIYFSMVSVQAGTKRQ

[5] = tested on: CYP3A4; settings: in vitro; ref Andrew Williams et al., 2002; cited from earlier work
[6] = tested on: Caco-2 cells; parameters: method as in Artursson, 1990; settings: ref Artursson, 1990; cited from earlier work
[7] = tested on: T2, P-gp; assay: Rhodamine 123 permeability assay by fluorescence detection; format: in vitro ADME, human; settings: human, not told, day 25, M3-2 with VD3 for the last 48 h (condition #8), read-out: rhodamine 123 flux ratio ([B-to-A transport]/[A-to-B transport])
T2 construct: transport activities of efflux transporters, P-gp and BCRP, in the ChiPS18-derived enterocyte-like cells; endogenous in cells; host or cells: ChiPS18 human iPSC-derived enterocyte-like cells on CVM inserts
From the text: (§1) Flux ratio = Papp, basolateral to apical/Papp, apical to basolateral

[8] = biological target: T1, P-gp; assay: as above; format: in vitro ADME; parameters: transport activities of efflux transporters, P-gp and BCRP, in the ChiPS18-derived enterocyte-like cells; endogenous in cells; host or cells: ChiPS18 human iPSC-derived enterocyte-like cells on CVM inserts; settings: 10 μM, day 25, absence of Dex (condition #6, 7) or without Dex and DMSO (condition #5)
From the text: as §1

[9] = D30 of differentiation, read-out: RPChiPS771 d30 Papp Mean ± SD
[10] = day 23 of differentiation, read-out: RPChiPS771 d23 Papp Mean ± SD

Row | Compound | Papp at 2 h [2, 9] [×10⁻⁶ cm/s] | Papp at 2 h [2, 10] [×10⁻⁶ cm/s] | Human Fa [3] [%] | other results
1 | C=C1/C(=C\C=C2/CCC[C@]3(C)[C@@H]([C@H](C)CCCC(C)(C)O)CC[C@@H]23)C[C@@H](O)C[C@@H]1O [VD3, 1α,25-dihydroxyvitamin D3] |  |  |  | expression level of ALPI ([1]; presence of VD3, M3-2): upregulated; expression levels of UGT1A1, CYP2B6, CYP3A4 and CYP3A7 ([1]; presence of VD3 compared with controls without VD3, M3-2): increased; expression levels of SLC15A1, ABCB1 and ABCG2 ([1]; presence of VD3 vs without, M3-2): not affected
2 | Nc1nc2c(ncn2COCCO)c(=O)[nH]1 [acyclovir] | 10 ± 6.34 | 3.62 ± 0.73 |  | 
3 | Cc1cc(=O)n(-c2ccccc2)n1C [antipyrine] | 41.9 ± 2.2 | 48.4 ± 1.7 | 97 | 
4 | O=C(O)Cc1ccccc1Nc1c(Cl)cccc1Cl [diclofenac] | 12 ± 1.2 | 17.4 ± 0.6 |  | 
5 | C[C@H]1O[C@@H](O[C@H]2[C@@H](O)C[C@H](O[C@H]3[C@@H](O)C[C@H](O[C@H]4CC[C@@]5(C)[C@H](CC[C@@H]6[C@@H]5C[C@@H](O)[C@]5(C)[C@@H](C7=CC(=O)OC7)CC[C@]65O)C4)O[C@@H]3C)O[C@@H]2C)C[C@H](O)[C@@H]1O [digoxin] | 5.18 ± 0.7 | 6.15 ± 0.94 |  | directional transport (B-to-A vs A-to-B) [4]: Basal-to-apical (B-to-A) transport exceeded apical-to-basal (A-to-B) transport
6 | NC(N)=Nc1nc(CSCCC(N)=NS(N)(=O)=O)cs1 [famotidine] | 7.42 ± 3.36 | 5.05 ± 1.76 | 38 | 
7 | NS(=O)(=O)c1cc2c(cc1Cl)NCNS2(=O)=O [hydrochlorothiazide] | 9.5 ± 4.92 | 2.1 ± 1.12 |  | 
8 | COCCc1ccc(OCC(O)CNC(C)C)cc1 (centres unmarked) [metoprolol] | 25.1 ± 4.8 | 22.6 ± 1.3 |  | 
9 | Cc1ncc2n1-c1ccc(Cl)cc1C(c1ccccc1F)=NC2 [midazolam] |  |  |  | formation of 1′-OH midazolam by CYP3A4 compared to CYP3A7 [5]: > 600 fold
10 | CC(C)(C)NCC(O)COc1cccc2c1CC(O)C(O)C2 (centres unmarked) [nadolol] | 8.96 ± 9.29 | 2.83 ± 1.5 | 33 | 
11 | CC(C)NCC(O)COc1cccc2ccccc12 (centres unmarked) [propranolol] | 29.3 ± 2.5 | 26 ± 2.7 |  | passive permeability [6]: 41.9 ×10⁻⁶ cm/s
12 | CNC(=C[N+](=O)[O-])NCCSCc1ccc(CN(C)C)o1 [ranitidine] | 8.3 ± 6.06 | 3.94 ± 0.7 | 50 | 
13 | COC(=O)c1ccccc1-c1c2ccc(=N)cc-2oc2cc(N)ccc12 [rhodamine 123] |  |  |  | efflux ratio at 10 μM [7]: < 2; rhodamine 123 flux ratio ([B-to-A transport]/[A-to-B transport]) [8]: low
14 | O=C(O)c1cc(/N=N/c2ccc(S(=O)(=O)Nc3ccccn3)cc2)ccc1O [sulfasalazine] | 2.65 ± 1.01 | 1.02 ± 0.4 | 13 | 
15 | CCN1CCCC1CNC(=O)c1cc(S(N)(=O)=O)ccc1OC (centres unmarked) [sulpiride] | 8.39 ± 4.96 | 3.15 ± 1.18 |  | 
16 | C[C@]12CC[C@H]3[C@@H](CCC4=CC(=O)CC[C@@]43C)[C@@H]1CC[C@@H]2O [testosterone] |  |  | 100 | 
